Source: paper PMC5955586, “Transport of enniatin B and enniatin B1 across the blood-brain barrier and hints for neurotoxic effects in cerebral cells” (PLoS ONE, 2018)
Where “and” joins values, the source holds several entries; their conditions need not be identical. Equal values may be shown once. Read-outs that look alike come from different tables or passages of the source.

Tests used:
CCF-STTG1 cells = experiment: CCK-8 viability assay in CCF-STTG1; type: cell-based, human; details: for concentration with highly significant cytotoxic effects / IC50: CCF-STTG1, 48 h; for IC50: Homo sapiens, CCK-8, read-out: IC50 (cellular viability)
Protocol: To test the viability and to define the working range for later transport studies ENN B/ENN B1 stock solutions in ACN were diluted to the respective concentrations with serum free culture medium (1% ACN). An astrocytoma cell line, CCF-STTG1 (ATCC, Manassas, USA), and HBMEC cell line (human brain microvascular endothelial cells, kindly provided by Prof. Dr. Karch, Institute of Hygiene, University of Muenster (WWU Muenster)) were cultivated in RPMI 1640 medium supplemented with 100 U/mL penicillin, 100 μg/mL streptomycin, 2 mM L-glutamine and 10% (v/v) fetal calf serum (FCS) (medium for HBMEC additionally supplemented with 1 mM Na-pyruvate) using standardized culture conditions (37°C, 5% CO2, saturated humidified atmosphere). Culture medium was changed every 2–3 d, and the cells were subcultivated after trypsination when they reached a microscopic confluence of approximately 80%. For the evaluation of cytotoxic effects of ENN B and B1 in CCF-STTG1 and HBMEC, Cell Counting Kit-8 (CCK-8, Dojindo Laboratories, Tokyo Japan) was applied. The assay was performed according to the manufacturer’s instructions with slight modifications.
Briefly, the cells were seeded in 96-well tissue culture plates in a density of 1 × 10^4 cells/well (CCF-STTG1) and 4 × 10^3 cells/well (HBMEC), respectively. The cells were allowed to grow for 24 h, then the culture medium was replaced by serum free medium (100 μL/well), and the cells were cultivated for another 24 h (37°C, 5% CO2, saturated humidified atmosphere) before treatment. The cells were treated with ENN B and ENN B1 in a concentration range from 0.1 μM to 10 μM and were incubated for 48 h. After toxin exposure, the toxin solution was exchanged with a dye solution WST-8 (CCK-8 solution, water soluble tetrazolium salt-8, 2-(2-methoxy-4-nitrophenyl)-3-)4-nitrophenyl)-5-(2,4-disulfophenyl)-2H-tetrazolium monosodium salt), 1:10 diluted with fresh serum free medium, which was added to the cells followed by incubation for 60 min at 37°C. WST-8 dye is reduced to a water-soluble formazan by cellular dehydrogenases of viable cells, which increases the absorbance at λ = 457 nm and was measured with an Infinite M200 PRO microplate reader with Tecan i-control software version 1.7.1.12 (Tecan, Crailsheim, Germany). The amount of formazan generated by the activity of dehydrogenases in cells is directly proportional to the number of viable cells per well. The results are normalized to a solvent treated negative control (1% ACN).

PBCEC = experiment: Barrier integrity of PBCEC (TEER and capacitance CCl); type: cell-based, porcine; details: for barrier impairing effect: 200 nM; for effect on TEER value / effect on monolayer confluency (capacitance CCl): 1 μM, 48 h
Protocol: Before starting each experiment, the TEER values and the electrical capacitance of all cell layers were measured via cellular impedance spectroscopy (cellZscope®, nanoAnalytics, Münster, Germany). […] TEER values relate to the constitution of the tight junctions limiting paracellular transfer of compounds. In addition to the TEER, electrical capacitances (CCl) were monitored for 48 h. Cellular phospholipid bilayers act like an electrical capacitor and also contribute to the cellular impedance. Changes of the CCl value give information about the integrity of the cell monolayer. In this experiment, a parallel set up was applied. For each treatment, one triplicate of filters was monitored via cellular impedance spectroscopy over the course of 48 h using a cellZscope® device–here, the basolateral compartment was prepared with 1650 μL serum free medium and the volume in the apical compartment was filled to 760 μL (ratio 1:2.17). Another triplicate for the same incubation conditions was kept in Transwell® filter cell culture multiple well plates (12 well format) over the course of 48 h. In the multiple well plates the ratio between the apical and the basolateral compartment was 1:3, therefore the starting volume in the apical compartment is 500 μL and 1500 μL in the basolateral compartment. Here, samples for quantitation of transfer of enniatins across the barrier were drawn after 1, 2.5, 6.5, 18, 24, 28, 42 and 48 hours in this given ratio i.e. 30 μL apical and 90 μL basolateral. After 48 h, the final TEER values of the filters from the multiple well plate were measured to ensure the stability of the cell layer throughout the experiment. To double check the integrity of the barrier, lucifer yellow (LY, 50 μM), as a paracellular transfer marker, was applied. The amount of LY found in the basolateral compartment after 1 h was measured at λex = 430 nm and λ em = 540 nm.

[1] = Pig feeding study, plasma concentration; type: in vivo; details: worst case contamination 5.8 mg/kg ENN B, 18.3 mg/kg ENN B1
[2] = set-up: method as in PMID 23598119; details: oral intake 0.05 mg/kg b.w.; cited from earlier work
HepG2 = tested on: HepG2; set-up: method as in PMID 21640785; details: cited from earlier work
Caco-2 cells = tested on: Caco-2 cells; set-up: method as in PMID 21640785; details: cited from earlier work
MRC-5 cells = tested on: MRC-5 cells; set-up: method as in PMID 16730043; details: MRC-5, 24 h, Alamar Blue; cited from earlier work

| SMILES | effect on viability (CCF-STTG1 cells; CCF-STTG1, 0.1 μM and 1 μM, 48 h) | concentration with highly significant cytotoxic effects (CCF-STTG1 cells) | IC50 (CCF-STTG1 cells) | barrier impairing effect (PBCEC) | effect on TEER value (PBCEC) | effect on monolayer confluency (capacitance CCl) (PBCEC) | theoretical plasma levels [1] | concentration in pig plasma [2] | IC50 (HepG2; read-out: IC50) | IC50 (Caco-2 cells; read-out: IC50) | IC50 (MRC-5 cells) | IC50 (HepG2) | IC50 (Caco-2 cells) |
| --- | --- | --- | --- | --- | --- | --- | --- | --- | --- | --- | --- | --- | --- |
| CC[C@H](C)[C@H]1C(=O)O[C@H](C(C)C)C(=O)N(C)[C@@H](C(C)C)C(=O)O[C@H](C(C)C)C(=O)N(C)[C@@H](C(C)C)C(=O)O[C@H](C(C)C)C(=O)N1C [ENN B1, enniatin B1] | weak but significant effects | ≥ 2.5 µM | 4.4 µM | did not have any barrier impairing effect | does not lead to a breakdown of the TEER value | does not impair PBCEC confluency | 0.641 μg/mL and 0.980 μM | 0.035 μg/mL and 0.054 μM | 8.5 µM | 11.5 µM | 4.7 µM | – | – |
| CC(C)[C@H]1C(=O)O[C@H](C(C)C)C(=O)N(C)[C@@H](C(C)C)C(=O)O[C@H](C(C)C)C(=O)N(C)[C@@H](C(C)C)C(=O)O[C@H](C(C)C)C(=O)N1C [ENN B, enniatin B] | – | ≥ 5 µM | 8.9 µM | did not have any barrier impairing effect | does not lead to a breakdown of the TEER value | does not impair PBCEC confluency | 0.423 μg/mL and 0.662 μM | 0.073 μg/mL and 0.114 μM | – | – | 9.8 µM | no IC50 could be calculated | no IC50 could be calculated |
